From patent US20070276024A1, “Methods for Treating Diseases and Conditions with Inverse Agonists and for Screening for Agents Acting as Inverse Agonists” (Inverseon , Inc., priority 2003, published 2007)
Entries after “also recorded” stand apart in the source; their conditions may differ. Read-outs that look alike come from different tables or passages of the source.

Columns and labels:
asthmatic mice = assay: Airway resistance (Raw) response to methacholine in murine model of asthma; assay type: in vivo, Balb/cJ mice; settings: for airway responsiveness to methacholine provocation (airway resistance, Raw) / airway hyperresponsiveness: asthmatic mice; for airway hyperresponsiveness: methacholine challenge, chronic treatment 7 days, 20 mg/kg (metoprolol 3× daily s.c.; timolol in chow)
Method: Balb/cJ mice aged 6 weeks (Jackson Animal Laboratory, Bar Harbor, Maine) were housed under specific pathogen-free conditions and fed a chicken ovalbumin-free diet. The Animal Research Ethics Boards of both the University of Houston and the Baylor College of Medicine approved all experiments reported here. […] Mice were sensitized with subcutaneous injection of 25 μg of ovalbumin adsorbed to aluminum hydroxide on protocol days 2, 9, and 16. Subsequently, mice were given 50 μL of saline solution containing 25 μg of ovalbumin intranasally, on a daily basis, from protocol days 23 through 27. A group of ovalbumin-sensitized saline-challenged mice serves as controls for systemic sensitization and respiratory challenges with ovalbumin. Prior to intranasal administrations, mice were sedated with halothane vapor.
To examine the effects of duration of β-adrenergic ligand therapy on the phenotype of the murine model of asthma, the experimental drugs were administered either acutely or chronically to different groups of asthmatic mice.
Asthmatic mice on acute therapy were given a single intravenous bolus infusion of either β-adrenergic drug or normal saline on protocol day 28, 15 minutes before airway responsiveness to methacholine was determined. […] […] […] These concentrations were chosen based on those producing therapeutic effects in mice in previously published studies. The non-asthmatic mice were fed normal chow.
On protocol day 28, mice were anesthetized, tracheotomized, and connected to a computer-controlled small animal ventilator (Flexivent, Scientific Respiratory Equipment, Inc., Montreal, Canada). Airway resistance (Raw) was measured using the forced oscillation technique. The cellular composition of bronchoalveolar lavage fluid (BALF) was also determined.
To induce airway constriction, a solution containing 150 μg/mL of acetyl-α-methylcholine chloride (methacholine) (Sigma Chemical, St. Louis, Mo.) was infused intravenously at constant rates using a syringe infusion pump (Raze Scientific Instruments, Stanford, Conn.). […] Each methacholine dose was administered for 3 to 5 minutes, during which data were sampled at 1-minute intervals and then averaged.
The complex input impedance of the respiratory system was computed and the value of the real part of respiratory system impedance at 19.75 Hz was taken to reflect the magnitude of airway resistance (Raw). To examine the degree of airway responsiveness of each animal, the values for Raw as a function of methacholine doses were plotted. The largest value for Raw achieved in response to methacholine stimulation was referred to as Rawpeak. For mice that achieved a plateau in the methacholine dose-Raw response curve, the ED50 was calculated by linear interpolation using the GraphPad Prism4 (GraphPad Software, Inc.). […] The Bonferroni test was used to examine the statistical differences between experimental groups. The effects of acute drug treatments on baseline respiratory system mechanics were assessed using a two-tailed paired t-test. A value of P<0.05 was considered significant.
For these experiments, salbutamol was used for chronic administration at 0.5 mg/kg/day with a minipump and for acute administration at 0.15 mg/kg by i.v. bolus 15 minutes prior to challenge. Alprenolol was used at a high dose of 7200 ppm in chow or at a low dose of 720 ppm in chow. Carvedilol was used at a high dose of 2400 ppm in chow or at a low dose of 720 ppm in chow.
The airway resistance (Raw) is plotted as cm H2O ml^−1 s.

[1] = test system: tracheas from asthmatic mice; settings: asthmatic mice chronically treated; cited from earlier work
β2-adrenergic receptor = β2-adrenergic receptor (Mus musculus, UniProt P18762); assay type: in vivo, mice; settings: for level of the β2-adrenergic receptor: chronic treatment; for Bmax (receptor density) / βmax (receptor density): lung membranes, mean±SEM, n=3-5; for Bmax (receptor density): drug treatment 15 Minutes; for βmax (receptor density): drug treatment 28 Days
Method: β2-adrenergic receptor numbers were measured in asthmatic mice as follows. […] Mice were sacrificed and lung membranes were isolated as follows. Frozen lung tissue was homogenized in an ice-cold buffer containing 0.32 M sucrose and 25 mM Tris (pH 7.4) using a polytron (Pro 200, Pro Scientific, Inc.). The homogenate was centrifuged at 1000×g for 10 min at 4° C. The resulting supernatant was centrifuged at 40,000×g for 20 min at 4° C. The pellet was suspended in an ice-cold 25 mM Tris-HCl buffer (pH 7.4) and centrifuged at 40,000'g for 20 min at 4° C. The final pellet was suspended in 200 μL of 25 mM Tris-HCl (pH 7.4); membrane protein concentration was determined by BCA protein assay kit. […] The incubation was done at 37° C. for 2 h and terminated by rapid vacuum filtration through glass fiber filters. The filters were washed three times with 250 μL of cold wash buffer (25 mM Tris-HCl, pH 7.4) and the radioactivity determined in a counter. […] Receptor densities are expressed as femtomoles of sites per milligram of protein. Bmax is determined by nonlinear regression of the saturation binding curves.

patients with CHF = settings: cited from earlier work
[2] = test system: antigen-induced bronchoconstriction; settings: acute administration; cited from earlier work
β-adrenergic receptor = settings: U.S. Pat. No. 6,284,800; cited from earlier work
[3] = healthy volunteers; after 9 d of treatment versus first treatment day; cited from earlier work
[4] = cited from earlier work
[5] = test system: sensitized and allergen-challenged mice; assay: Aminophylline on acute airway effects of nadolol; assay type: in vivo; settings: 100 mg/kg i.p. during methacholine infusion; untreated and nadolol-treated mice
Method: Mice were sensitized to the allergen ovalbumin as described in Example 1.
At time point 1 (time=−10 min) baseline airway resistance of the mice was determined. At time point 2 (time=−5 min) methacholine was infused into mice to reach their EC70.

[6] = cited from earlier work; remark: listed apart in the source
β3 = β3 (Homo sapiens, UniProt P13945); settings: read-out: K1 values for β3; cited from earlier work
[7] = in vivo; cited from earlier work
β2 = settings: read-out: K1 values for β2 (first value); cited from earlier work
[8] = in humans, in the presence of nadolol; cited from earlier work
[9] = long-term administration; cited from earlier work
[10] = acute: single intravenous bolus 15 minutes before methacholine
[11] = chronic administration, 28 days (in chow; salbutamol by osmotic minipump)

Sequence of β2-adrenergic receptor (P18762 whole entry): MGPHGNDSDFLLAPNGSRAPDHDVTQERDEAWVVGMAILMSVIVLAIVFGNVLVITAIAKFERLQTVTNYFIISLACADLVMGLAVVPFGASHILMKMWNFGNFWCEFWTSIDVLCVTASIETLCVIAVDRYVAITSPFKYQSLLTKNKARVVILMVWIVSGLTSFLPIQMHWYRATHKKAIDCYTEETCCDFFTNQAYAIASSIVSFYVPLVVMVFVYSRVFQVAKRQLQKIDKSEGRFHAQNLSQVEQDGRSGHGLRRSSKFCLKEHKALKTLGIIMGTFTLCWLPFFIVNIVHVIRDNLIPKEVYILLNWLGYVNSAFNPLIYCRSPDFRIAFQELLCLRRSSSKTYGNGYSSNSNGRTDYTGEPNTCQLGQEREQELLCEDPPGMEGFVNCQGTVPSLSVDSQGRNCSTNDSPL
Sequence of β3 (P13945 whole entry): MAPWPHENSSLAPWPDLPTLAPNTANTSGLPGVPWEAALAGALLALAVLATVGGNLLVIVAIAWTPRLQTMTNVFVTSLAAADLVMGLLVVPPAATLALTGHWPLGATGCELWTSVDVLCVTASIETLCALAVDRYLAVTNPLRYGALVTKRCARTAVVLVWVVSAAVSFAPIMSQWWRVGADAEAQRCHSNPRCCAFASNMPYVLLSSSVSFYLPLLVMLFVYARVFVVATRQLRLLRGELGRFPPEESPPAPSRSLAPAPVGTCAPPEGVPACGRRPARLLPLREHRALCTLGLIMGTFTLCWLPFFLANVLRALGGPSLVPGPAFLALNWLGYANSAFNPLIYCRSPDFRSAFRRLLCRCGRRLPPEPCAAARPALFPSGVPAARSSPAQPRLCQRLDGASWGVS

## C=CCc1ccccc1OCC(O)CNC(C)C (stereo not shown) [Alprenolol, alprenolol]
Asthmatic mice; 15 minutes of administration
  Decreased Raw: yes
Asthmatic mice; 2 days of administration
  Decreased Raw: no
Asthmatic mice; 28 days of administration
  Decreased Raw: no
Asthmatic mice; [10]
  airway responsiveness to methacholine provocation (airway resistance, Raw): airway responsiveness was diminished
Asthmatic mice; [11]
  airway responsiveness to methacholine provocation (airway resistance, Raw): does not reduce airway hyperresponsiveness; also recorded: provides no benefit upon chronic administration
[1]
  rank of effectiveness on contraction of excised tracheas in response to methacholine: most effective
β2-adrenergic receptor; 15 minutes of administration
  Increased β2AR density: yes
β2-adrenergic receptor; 2 days of administration
  Increased β2AR density: no
β2-adrenergic receptor; 28 days of administration
  Increased β2AR density: no
β2-adrenergic receptor
  level of the β2-adrenergic receptor: slight decrease
  Bmax (receptor density): 299.5 ± 12.19 femtomoles of sites per milligram of protein
  βmax (receptor density): 179.2 ± 53.05 femtomoles of sites per milligram of protein

## CC(C)(Cc1c[nH]c2ccccc12)NCC(O)COc1ccccc1C#N (stereo not shown) [Bucindolol, bucindolol]
Patients with CHF
  clinical outcome (mortality, benefit over placebo): failed to demonstrate any benefit over placebo

## CC(C)NC[C@@H](O)COc1cccc2ccccc12 [D-propranolol]
[2]
  antigen-induced bronchoconstriction and airway hyperresponsiveness: beneficial in inhibiting antigen-induced bronchoconstriction and reducing airway hyperresponsiveness
β-adrenergic receptor
  activity with respect to β-adrenergic receptors: inactive

## Cc1ccc(OCC(O)C(C)NC(C)C)c2c1CCC2 (stereo not shown) [ICI-118,551]
[1]
  rank of effectiveness on contraction of excised tracheas in response to methacholine: then ICI-118,551

## O=S(=O)(Nc1ccc(CCNC[C@H](O)c2cccnc2)cc1)c1ccc(-c2nc(-c3ccc(C(F)(F)F)cc3)cs2)cc1 [L-796568]
[3]
  acute increases in plasma fatty acid concentrations: completely absent after 9 d of treatment

## CC(C)NC[C@H](O)COc1cccc2ccccc12 [L-form of propranolol, propranolol]
[2]
  specific lung resistance: increased specific lung resistance

## CC(C)(C)NCC(O)c1ccc(O)c(CO)c1 (stereo not shown) [Salbutamol, salbutamol]
[4]; 10 patients with cystic fibrosis versus healthy adults
  bioavailability of inhaled drug: greater
Asthmatic mice; 15 minutes of administration
  Decreased Raw: yes
Asthmatic mice; 2 days of administration
  Decreased Raw: no
Asthmatic mice; 28 days of administration
  Decreased Raw: no
Asthmatic mice; [10]
  airway responsiveness to methacholine provocation (airway resistance, Raw): reduced the level of airway responsiveness to methacholine provocation
Asthmatic mice; [11]
  airway responsiveness to methacholine provocation (airway resistance, Raw): no protection was observed
β2-adrenergic receptor; 15 minutes of administration
  Increased β2AR density: yes
β2-adrenergic receptor; 2 days of administration
  Increased β2AR density: no
β2-adrenergic receptor; 28 days of administration
  Increased β2AR density: no
β2-adrenergic receptor
  level of the β2-adrenergic receptor: slight decrease
  Bmax (receptor density): 256.5 ± 29.24 femtomoles of sites per milligram of protein
  βmax (receptor density): 97.0 ± 23.02 femtomoles of sites per milligram of protein

## Cn1c(=O)c2[nH]cnc2n(C)c1=O [aminophylline]
[5]
  airway resistance after administration: significant and sustained drop in airway resistance

## CCCC1O[C@@H]2C[C@H]3[C@@H]4CCC5=CC(=O)C=C[C@]5(C)[C@H]4[C@@H](O)C[C@]3(C)[C@]2(C(=O)CO)O1 (stereo partly shown) [budesonide]
[6]; 6 children with asthma versus 11 healthy adults
  plasma clearance of the 2 enantiomers per kilogram of bodyweight, higher in children than adults: about 50%
[6]; in vivo
  plasma clearance relative to the average clearance of prednisolone: about 10 fold
  systemic availability of the swallowed fraction: 10.7±4.3%

## Cc1ccc(Cl)c(OCC(O)CNC(C)(C)C)c1 (stereo not shown) [bupranolol]
β3
  Ki: 50 nM
[7]
  half-life: 1.5 h
β2
  Ki: 1.7 nM

## CN[C@@H](C)[C@H](O)c1ccccc1 [ephedrine]
[8]
  level of thermogenesis relative to the ephedrine-untreated level: 40%

## C[C@@H]1C[C@H]2[C@@H]3C[C@H](F)C4=CC(=O)C=C[C@]4(C)[C@@]3(F)[C@@H](O)C[C@]2(C)[C@@]1(O)C(=O)SCF [fluticasone]
[6]; in vivo
  first-pass hepatic metabolism of the systemically absorbed drug: almost complete

## COCCc1ccc(OCC(O)CNC(C)C)cc1 (stereo not shown) [metoprolol]
Asthmatic mice
  airway hyperresponsiveness: effective in reducing airway hyperresponsiveness
Patients with CHF
  clinical outcome (mortality, benefit over placebo): significant mortality reduction

## OCc1cc(C(O)CNCCCCCCOCCCCc2ccccc2)ccc1O (stereo not shown) [salmeterol]
[4]; in vivo
  time in which the majority of a dose is eliminated, predominantly in the feces: ≤ 72 h
[9]
  trial outcome (death rates): stopped due to increased death rates

## CC(C)(C)NCC(O)c1cc(O)cc(O)c1 (stereo not shown) [terbutaline]
[4]; from an MDI
  increase of bioavailability by the oral component: 6.7%
[4]; healthy smokers versus healthy nonsmokers
  absorption through the lung: more rapidly

## CC(C)(C)NC[C@H](O)COc1nsnc1N1CCOCC1 [timolol]
Asthmatic mice
  airway hyperresponsiveness: effective in reducing airway hyperresponsiveness
